In patent publication US6369107B1, “Combined use of diclofenac and tribenoside to treat osteoarthritis” (KS Biomedix Ltd., priority 1994, dated 2002):
“And” between values parts separate entries of the source, which are not always exact repeats. Identical values can stand only once.

Tests used:
[1] = system: matrix of cartilages of the tibial plateau of STR/ORT mice; test: Quantitative interference microscopy of dry mass per unit area in the tibial plateau cartilage matrix of treated STR/ORT mice; assay type: in vivo; conditions: for effect on the dry mass per unit area (and therefore water content) of medial cartilage: feeding STR/ORT mice
Source text: The extra-cellular factor was studied by quantitative interference microscopy, as described by Ross, “Phase Contrast and Interference Microscopy for Cell Biologists” Arnold: London, p.36 (1967). This form of microscopy allows the investigator to measure the dry mass, per unit area (Cs), in selected regions of a section or of a cell. This measurement then allows the assessment of water content (Cw): […]

STR/ORT mice [2] = test: Development of osteoarthritis / cartilage damage in STR/ORT mice; assay type: in vivo; conditions: fraction of mice
Source text: The present invention is based on the postulate that two influences are involved in the development of OA: a cellular and an extracellular factor.

STR/ORT mice [3] = conditions: mice given the drug; background; cited from earlier work
monoamine oxidase (MAO) [4] = conditions: mice given the drug; background, Chambers et al 1992; cited from earlier work
monoamine oxidase (MAO) [5] = test: Localisation of monoamine oxidase (MAO) activity in chondrocytes of potentially osteoarthritic cartilage of mice; assay type: in vivo; conditions: feeding STR/ORT mice
Source text: In normal articular cartilage (human as well as murine), monoamine oxidase in chondrocytes can be found located precisely in mitochondria. During the development of the natural disease in mice, these granules become larger and apparently burst, the monoamine oxidase (MAO) activity becomes distributed through the cytoplasm of the chondrocytes and even into the surrounding matrix. This was described by Chambers et al, Int. J. Exp. Path. 73:115-123 (1992), who related the MAO activity in the medial as against that in the (normal) lateral cartilage in untreated mice and in those treated with diclofenac.
There was no sign of activity in the general cytoplasm or in the matrix.
Results are shown in Table 1, i.e. the dry mass per μm in the matrix of cartilages of the tibial plateau of STR/ORT mice after various treatments. Three mice were treated with diclofenac (Df) alone, four with tribenoside (Tb) alone, and four with both (Df+Tb).

[6] = STR/ORT mice, matrix of tibial plateau cartilage, one line per mouse, * duplicate sections

| SMILES | Mass pg/unit area in the medial cartilage [1, 6] | effect on the dry mass per unit area (and therefore water content) of medial cartilage [1] | mice having severe OA (STR/ORT mice [2]) | development of OA (STR/ORT mice [3]) | localisation of the MAO in the potentially osteoarthritic cartilage (monoamine oxidase (MAO) [4]) | Mass pg/unit area in the lateral cartilage [1, 6] | localisation of MAO activity / MAO activity in the medial cartilage (monoamine oxidase (MAO) [5]) |
| --- | --- | --- | --- | --- | --- | --- | --- |
| O=C(O)Cc1ccccc1Nc1c(Cl)cccc1Cl [Df, diclofenac sodium] | 0.51 pg/unit area and 0.50 pg/unit area and 0.52 pg/unit area | no effect | at least 9/10 | did not stop the development of OA | marked improvement | – | – |
| CCOC1O[C@H]([C@@H](COCc2ccccc2)OCc2ccccc2)[C@H](OCc2ccccc2)[C@H]1O (stereo partly drawn) [Tb, tribenoside] | 2.54 pg/unit area and 2.76 pg/unit area and 2.58 pg/unit area and 2.77 pg/unit area and 2.29 pg/unit area and 2.44 pg/unit area and 3.14 pg/unit area | markedly increased | – | – | – | 2.84 pg/unit area | did not improve |
